In patent US8796296B2, “Aminopyrimidine derivatives as LRRK2 modulators” (Genentech, Inc., priority 2011, dated 2014):

molecular target: LRRK2 (Homo sapiens (Human), UniProt Q5S007, G2019S); experiment: In Vitro LRRK2 LabChip Assay (LRRK2 Ki); type: biochemical
Procedure: In Vitro LRRK2 LabChip Assay
This assay was used to determine a compound's potency in inhibiting activity of LRRK2 by determining, Kiapp, IC50, or percent inhibition values. In a polypropylene plate, LRRK2, fluorescently-labeled peptide substrate, ATP and test compound were incubated together. Using a LabChip 3000 (Caliper Life Sciences), after the reaction the substrate was separated by capillary electrophoresis into two populations: phosphorylated and unphosphorylated. The relative amounts of each were quantitated by fluorescence intensity. LRRK2 Ki was determined according to the equation: Y=V0*(1−((x+Ki*(1+S/Km)+Et)/(2*Et)−(((x+Ki*(1+S/Km)+Et)^2−(4*Et*x))^0.5)/(2*Et))). Ki values in Table 4 and elsewhere herein are shown in μM.
Assay conditions and materials used were as follows:
LRRK2 Wild type in 5 mM MgCl2: 15 nM (Invitrogen lot #500607F)
Kinase reaction time: 2 hours
Wild type in 5 mM MgCl2: 80 μM
Kinase: LRRK2 G2019S (Invitrogen cat #PV4882). • LRRK2 Wild type (Invitrogen cat #PV4874).
Substrate: 5FAM-GAGRLGRDKYKTLRQIRQ-CONH2
Complete Reaction Buffer: H2O/25 mM Tris, pH 8.0/5 mM MgCl2/2 mM DTT/0.01% Triton X-100.
For serial dilutions, 34.6 μl DMSO was added to columns 3-24. For the assay controls, 37.5 μl DMSO was added to columns 1 and 2 of rows A and P. a,d and 50 μl 25 μM G-028831 (Staurosporine) was added to columns 1 and 2, row B. For the samples: to start at 100 μM, 37.5 μl DMSO was to columns 1 and 2, then 12.5 μl 10 mM compound; to start at 10 μM, 78 μl DMSO was added to columns 1 & 2, then 2 μl 10 mM compound; and to start at 1 μM, 25 μM compound (2 μl 10 mM cmpd+798 μl DMSO) was added to empty columns 1 and 2. A Precision instrument was used to perform 1:3.16 serial dilutions (“PLK_BM_serial_halflog”).
ATP was diluted to 282.1 μM in Complete Kinase Buffer (final concentration was 130 μM).
In Complete Reaction Buffer, substrate was diluted to 4 μM. Equal volumes of Complete Reaction Buffer and 4 μM substrate were combined to obtain the blank. Equal volumes of Complete Reaction Buffer and 4 μM substrate were combined and to the combined solution was added 2× final LRRK2 concentration.
To a 50 μl polypropylene plate, 5 μl/well buffer/substrate was added by hand to Blank wells. A Biomek FX was used to start the kinase reaction (“PLK SAR 23 ATP”). The following were added to the appropriate wells:
The plate was incubated for 2 hours in the dark. Biomek FX was used to stop the kinase reaction (“PLK Stop”), and 10 μl/well Stop solution was added to the Assay Plate.
Results were read on the LabChip 3000.
The LabChip 3000 was run using the job “LRRK2 IC50” with the following job settings: […]

Chain of LRRK2 (Q5S007 whole entry G2019S): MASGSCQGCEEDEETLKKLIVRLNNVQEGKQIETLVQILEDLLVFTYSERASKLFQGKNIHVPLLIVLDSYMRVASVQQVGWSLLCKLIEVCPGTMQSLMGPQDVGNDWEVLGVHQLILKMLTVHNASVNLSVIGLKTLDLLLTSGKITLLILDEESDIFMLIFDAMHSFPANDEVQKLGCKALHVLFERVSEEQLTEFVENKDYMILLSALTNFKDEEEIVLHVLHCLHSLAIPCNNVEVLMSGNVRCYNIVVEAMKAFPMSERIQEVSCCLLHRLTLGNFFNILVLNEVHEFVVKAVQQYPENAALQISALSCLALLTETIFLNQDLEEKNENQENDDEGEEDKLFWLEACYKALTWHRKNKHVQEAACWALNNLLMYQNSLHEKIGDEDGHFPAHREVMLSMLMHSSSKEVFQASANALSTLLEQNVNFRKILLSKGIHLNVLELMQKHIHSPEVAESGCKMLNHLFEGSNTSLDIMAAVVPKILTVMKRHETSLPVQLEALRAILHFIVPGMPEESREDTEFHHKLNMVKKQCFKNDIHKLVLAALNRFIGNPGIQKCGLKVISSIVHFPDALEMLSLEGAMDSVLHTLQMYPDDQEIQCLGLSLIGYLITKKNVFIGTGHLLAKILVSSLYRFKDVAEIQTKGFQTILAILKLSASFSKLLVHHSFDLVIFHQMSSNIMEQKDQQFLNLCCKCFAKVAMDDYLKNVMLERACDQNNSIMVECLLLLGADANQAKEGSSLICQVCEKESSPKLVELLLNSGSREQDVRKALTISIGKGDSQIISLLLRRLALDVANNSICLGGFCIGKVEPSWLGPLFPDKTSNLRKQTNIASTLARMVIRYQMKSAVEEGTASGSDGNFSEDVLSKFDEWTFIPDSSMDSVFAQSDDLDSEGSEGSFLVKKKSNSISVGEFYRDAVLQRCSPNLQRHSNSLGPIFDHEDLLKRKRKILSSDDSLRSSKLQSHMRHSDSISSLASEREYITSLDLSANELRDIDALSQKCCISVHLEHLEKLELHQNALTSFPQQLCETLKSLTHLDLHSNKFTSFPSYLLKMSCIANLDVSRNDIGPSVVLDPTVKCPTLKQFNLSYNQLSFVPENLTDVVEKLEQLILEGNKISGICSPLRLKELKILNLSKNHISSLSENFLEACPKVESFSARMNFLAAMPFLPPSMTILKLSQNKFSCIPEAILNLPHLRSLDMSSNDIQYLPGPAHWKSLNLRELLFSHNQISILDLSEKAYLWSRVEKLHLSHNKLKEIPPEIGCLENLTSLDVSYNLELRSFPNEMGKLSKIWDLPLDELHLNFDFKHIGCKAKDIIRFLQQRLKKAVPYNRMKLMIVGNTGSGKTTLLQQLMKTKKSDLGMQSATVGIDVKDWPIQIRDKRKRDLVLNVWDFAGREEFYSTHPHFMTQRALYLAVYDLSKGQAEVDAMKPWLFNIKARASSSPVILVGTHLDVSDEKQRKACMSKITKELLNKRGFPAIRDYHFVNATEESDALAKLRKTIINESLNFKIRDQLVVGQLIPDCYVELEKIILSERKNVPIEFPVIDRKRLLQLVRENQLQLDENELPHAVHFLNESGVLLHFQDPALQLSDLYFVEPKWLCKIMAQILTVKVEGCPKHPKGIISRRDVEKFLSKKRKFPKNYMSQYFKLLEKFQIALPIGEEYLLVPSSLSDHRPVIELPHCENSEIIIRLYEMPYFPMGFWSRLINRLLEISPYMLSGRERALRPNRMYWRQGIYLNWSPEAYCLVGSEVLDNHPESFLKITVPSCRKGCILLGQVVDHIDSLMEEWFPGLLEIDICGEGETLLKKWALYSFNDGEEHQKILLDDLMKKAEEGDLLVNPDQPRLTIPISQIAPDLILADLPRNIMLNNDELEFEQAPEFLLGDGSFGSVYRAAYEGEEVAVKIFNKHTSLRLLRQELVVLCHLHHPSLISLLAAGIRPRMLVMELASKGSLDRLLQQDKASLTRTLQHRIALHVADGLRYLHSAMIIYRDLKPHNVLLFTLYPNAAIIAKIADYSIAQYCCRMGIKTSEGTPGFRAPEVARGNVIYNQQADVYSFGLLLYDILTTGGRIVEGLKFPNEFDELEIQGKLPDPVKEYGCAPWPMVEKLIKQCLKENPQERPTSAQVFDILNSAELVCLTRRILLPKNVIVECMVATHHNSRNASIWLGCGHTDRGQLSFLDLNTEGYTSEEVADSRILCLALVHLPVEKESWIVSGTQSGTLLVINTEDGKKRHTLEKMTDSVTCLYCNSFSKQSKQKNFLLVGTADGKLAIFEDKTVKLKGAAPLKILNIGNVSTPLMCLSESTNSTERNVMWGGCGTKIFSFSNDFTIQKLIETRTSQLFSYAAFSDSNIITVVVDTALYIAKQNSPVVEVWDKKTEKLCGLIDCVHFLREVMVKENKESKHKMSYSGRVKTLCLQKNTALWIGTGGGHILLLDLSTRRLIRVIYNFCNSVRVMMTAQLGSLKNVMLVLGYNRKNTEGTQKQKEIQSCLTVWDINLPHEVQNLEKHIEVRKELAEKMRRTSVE

Ki [nM] | SMILES
5 | CNc1nc(Nc2cc3nc(C)oc3cc2Cl)ncc1C(F)(F)F [Compound 6, N^2-(6-chloro-2-methylbenzo[d]oxazol-5-yl)-N^4-methyl-5-(trifluoromethyl)pyrimidine-2,4-diamine]
1 | CNc1nc(Nc2cc3c(cc2OC)N(C)C(=O)C(C)(C)O3)ncc1Cl [Compound 2, 7-((5-chloro-4-(methylamino)pyrimidin-2-yl)amino)-6-methoxy-2,2,4-trimethyl-2H-benzo[b][1,4]oxazin-3(4H)-one]
5 | CNc1nc(Nc2cc3c(cc2OC)CN(C)C3=O)ncc1C(F)(F)F [Compound 7, 5-methoxy-2-methyl-6-(4-(methylamino)-5-(trifluoromethyl)pyrimidin-2-ylamino)isoindolin-1-one]
2 | CNc1nc(Nc2cc3c(cc2Cl)n(C)c(=O)n3C)ncc1C(F)(F)F [Compound 4, 5-chloro-1,3-dimethyl-6-((4-(methylamino)-5-(trifluoromethyl)pyrimidin-2-yl)amino)-1H-benzo[d]imidazol-2(3H)-one]
6 | CNc1nc(Nc2cc3c(cc2OC)C(=O)N(C2COC2)C3)ncc1C(F)(F)F [Compound 25, 6-methoxy-5-(4-(methylamino)-5-(trifluoromethyl)pyrimidin-2-ylamino)-2-(oxetan-3-yl)isoindolin-1-one]
3 | CNc1nc(Nc2cc3c(cc2Cl)C(=O)N(C)C3)ncc1Cl [Compound 8, 6-chloro-5-(5-chloro-4-(methylamino)pyrimidin-2-ylamino)-2-methylisoindolin-1-one]
3 | CNc1nc(Nc2cc3c(cc2Cl)C(=O)N(C)CCO3)ncc1C(F)(F)F [Compound 1, 7-chloro-4-methyl-8-(4-(methylamino)-5-(trifluoromethyl)pyrimidin-2-ylamino)-3,4-dihydrobenzo[f][1,4]oxazepin-5(2H)-one]
27 | CNc1nc(Nc2cc3cnn(C)c(=O)c3cc2OC)ncc1C(F)(F)F [Compound 17, 7-methoxy-2-methyl-6-(4-(methylamino)-5-(trifluoromethyl)pyrimidin-2-ylamino)phthalazin-1(2H)-one]
1 | CNc1nc(Nc2cc3c(cc2OC)c(C(=O)N2CCOCC2)cn3C)ncc1C(F)(F)F [Compound 30, (5-methoxy-1-methyl-6-(4-(methylamino)-5-(trifluoromethyl)pyrimidin-2-ylamino)-1H-indol-3-yl)(morpholino)methanone]
8 | CNc1nc(Nc2cc3c(cc2OC)N(C)C(=O)C(C)(C)O3)ncc1C(F)(F)F [Compound 12, 6-methoxy-2,2,4-trimethyl-7-(4-(methylamino)-5-(trifluoromethyl)pyrimidin-2-ylamino)-2H-benzo[b][1,4]oxazin-3(4H)-one]
9 | CCN1Cc2c(ccc(Nc3ncc(C(F)(F)F)c(NC)n3)c2OC)C1=O [Compound 18, 2-ethyl-4-methoxy-5-(4-(methylamino)-5-(trifluoromethyl)pyrimidin-2-ylamino)isoindolin-1-one]
2 | CCNc1nc(Nc2cc3c(cc2OC)C(=O)N(C2COC2)C3)ncc1C(F)(F)F [Compound 26, 5-(4-(ethylamino)-5-(trifluoromethyl)pyrimidin-2-ylamino)-6-methoxy-2-(oxetan-3-yl)isoindolin-1-one]
3 | CCNc1nc(Nc2cc3c(cc2OC)C(=O)N(CC(C)(C)O)C3)ncc1C(F)(F)F [Compound 24, 5-(4-(ethylamino)-5-(trifluoromethyl)pyrimidin-2-ylamino)-2-(2-hydroxy-2-methylpropyl)-6-methoxyisoindolin-1-one]
7 | CNc1nc(Nc2cc3c(cc2OC)C(=O)N(C)CC3)ncc1C(F)(F)F [Compound 15, 7-methoxy-2-methyl-6-(4-(methylamino)-5-(trifluoromethyl)pyrimidin-2-ylamino)-3,4-dihydroisoquinolin-1(2H)-one]
7 | CNc1nc(Nc2ccc3c(c2OC)CN(C2CC2)C3=O)ncc1C(F)(F)F [Compound 10, 2-cyclopropyl-4-methoxy-5-(4-(methylamino)-5-(trifluoromethyl)pyrimidin-2-ylamino)isoindolin-1-one]
4 | CNc1nc(Nc2cc3c(cc2Cl)c(C(=O)N2CCNCC2)cn3C)ncc1C(F)(F)F [Compound 28, (5-chloro-1-methyl-6-(4-(methylamino)-5-(trifluoromethyl)pyrimidin-2-ylamino)-1H-indol-3-yl)(piperazin-1-yl)methanone]
1 | CNc1nc(Nc2cc3oc(C(=O)N(C)C)cc3cc2OC)ncc1C(F)(F)F [Compound 3, 5-methoxy-N,N-dimethyl-6-((4-(methylamino)-5-(trifluoromethyl)pyrimidin-2-yl)amino)benzofuran-2-carboxamide]
1 | CCNc1nc(Nc2cc3c(cc2Cl)c(C(=O)N2CCOCC2)cn3C)ncc1C(F)(F)F [Compound 29]
1 | CNc1nc(Nc2cc3c(cc2Cl)C(=O)N(C)C3)ncc1C(F)(F)F [Compound 9, 6-chloro-2-methyl-5-(4-(methylamino)-5-(trifluoromethyl)pyrimidin-2-ylamino)isoindolin-1-one]
5 | CNc1nc(Nc2cc3c(cc2OC)C(=O)N(C)C3)ncc1C(F)(F)F [Compound 21, 6-methoxy-2-methyl-5-(4-(methylamino)-5-(trifluoromethyl)pyrimidin-2-ylamino)isoindolin-1-one]
44 | CNc1nc(Nc2cc3c(cc2OC)C(=O)N(C)CC3)ncc1C#N [Compound 16, 2-(7-methoxy-2-methyl-1-oxo-1,2,3,4-tetrahydroisoquinolin-6-ylamino)-4-(methylamino)pyrimidine-5-carbonitrile]
1 | CNc1nc(Nc2cc3c(cc2Cl)c(C(=O)N2CCN(C)CC2)cn3C)ncc1C(F)(F)F [Compound 31, (5-chloro-1-methyl-6-(4-(methylamino)-5-(trifluoromethyl)pyrimidin-2-ylamino)-1H-indol-3-yl)(4-methylpiperazin-1-yl)methanone]
3 | CNc1nc(Nc2cc3c(cc2Cl)c(C(=O)N2C[C@@H]4C[C@H]2CO4)cn3C)ncc1C(F)(F)F [Compound 33, (1S,4S)-2-oxa-5-azabicyclo[2.2.1]heptan-5-yl(5-chloro-1-methyl-6-(4-(methylamino)-5-(trifluoromethyl)pyrimidin-2-ylamino)-1H-indol-3-yl)methanone]
10 | CNc1nc(Nc2cc3c(cc2OC)C(=O)N(CC(C)(C)O)C3)ncc1C(F)(F)F [Compound 23, 2-(2-hydroxy-2-methylpropyl)-6-methoxy-5-(4-(methylamino)-5-(trifluoromethyl)pyrimidin-2-ylamino)isoindolin-1-one]
4 | CNc1nc(Nc2cc3oc(=O)[nH]c3cc2Cl)ncc1Cl [Compound 13, 5-chloro-6-(5-chloro-4-(methylamino)pyrimidin-2-ylamino)benzo[d]oxazol-2(3H)-one]
3 | CNc1nc(Nc2cc3c(cc2Cl)c(C(=O)N2CCOCC2)cn3C)ncc1C(F)(F)F [Compound 22, (5-chloro-1-methyl-6-(4-(methylamino)-5-(trifluoromethyl)pyrimidin-2-ylamino)-1H-indol-3-yl)(morpholino)methanone]
1 | CNc1nc(Nc2ccc3c(c2OC)CN(C)C3=O)ncc1C(F)(F)F [Compound 11, 4-methoxy-2-methyl-5-(4-(methylamino)-5-(trifluoromethyl)pyrimidin-2-ylamino)isoindolin-1-one]
1 | CCN1CCN(C(=O)c2cn(C)c3cc(Nc4ncc(C(F)(F)F)c(NC)n4)c(Cl)cc23)CC1 [Compound 32, (5-chloro-1-methyl-6-(4-(methylamino)-5-(trifluoromethyl)pyrimidin-2-ylamino)-1H-indol-3-yl)(4-ethylpiperazin-1-yl)methanone]
4 | CNc1nc(Nc2ccc3c(c2OC)CN(C(C)(C)O)C3=O)ncc1C(F)(F)F [Compound 19, 2-(2-hydroxypropan-2-yl)-4-methoxy-5-(4-(methylamino)-5-(trifluoromethyl)pyrimidin-2-ylamino)isoindolin-1-one]

SMILES | Ki [nM]
CNc1nc(Nc2cc3oc(=O)n(C)c3cc2Cl)ncc1C(F)(F)F [Compound 5, 5-chloro-3-methyl-6-((4-(methylamino)-5-(trifluoromethyl)pyrimidin-2-yl)amino)benzo[d]oxazol-2(3H)-one] | 4
